Measured values as given in US20180086749A1, “INHIBITORS OF VIRUSES” (priority 2015, published 2018).
Where “and” joins values, the source holds several entries; their conditions need not be identical. Equal values may be shown once. Read-outs that look alike come from different tables or passages of the source.

Columns and labels:
CHIKV S27 = type: cell-based, Chikungunya virus; settings: 5 μM
[1] = test system: VEEV TrD (Trinidad donkey); type: cell-based, Venezuelan equine encephalitis virus
VEEV (TC83 strain) = experiment: microbe, parasite or virus in culture; type: cell-based, Venezuelan equine encephalitis virus
CHIKV (S27 strain) = CHIKV (S27 strain) CPE assay; type: cell-based, Chikungunya virus
Influenza virus A (H1N1) = type: cell-based
LCMV-ARM = type: cell-based, Lymphocytic Choriomeningitis Virus
YFV 17D = type: cell-based, Yellow Fever virus
in vitro = settings: African green monkey
[2] = test system: host gene expression in HEp-2 cells; experiment: DNA microarray host gene expression; type: cell-based, Human; settings: 5 μM, 18 hours
VEEV V3526-luc = experiment: microbe, parasite or virus in culture; type: cell-based, Venezuelan equine encephalitis virus; settings: Venezuelan equine encephalitis virus
pVSV-luc = experiment: microbe, parasite or virus in culture; type: cell-based, Vesicular stomatitis virus
[3] = read-out: VEEV (TC83 strain) CPE Assay Potency mean EC50
[4] = Tables 7-10, read-out: CHIKV (S27 strain) CPE Assay Potency mean EC50
[5] = Venezuelan equine encephalitis virus, read-out: VEEV EC50
[6] = Chikungunya virus, read-out: CHIKV EC50

Compound	CC50 (Vero 76 cells) [µM]	EC50 (VEEV (TC83 strain); [3]) [µM]	EC50 (CHIKV (S27 strain); [4]) [µM]	further results
COc1ccccc1CC(=O)N(c1ccccc1)c1nc2c(s1)CCCC2 [F]	–	–	–	Log titer reduction at 5 μM (CHIKV S27): 2.495 log; Log titer reduction at 5 μM [1]: 3.198 log
CCOc1ccccc1CC(=O)N(c1cccc(OC)c1)c1nc2c(s1)CCCC2 [Entry 21]	> 50	1.7	4.1	–
CCOc1ccccc1CC(=O)N(c1nccs1)c1nc2c(s1)CCCC2 [Entry 23]	> 50	> 50	> 50	–
O=C(Cc1ccccn1)N(c1ccccc1)c1nc2c(s1)CCCC2 [Entry 25]	33.2	> 50	> 50	–
O=C(Cc1ccco1)N(c1ccccc1)c1nc2c(s1)CCCC2 [Entry 26]	25.8	6.8	8.2	–
CCOc1ccccc1CC(=O)N(c1nc2c(s1)CCCC2)c1ccccc1OC [Entry 20]	> 50	> 50	> 50	–
Cc1csc(CC(=O)N(C)c2nc3c(s2)CCCC3)c1 [Entry 30]	36.4	0.02	0.09	–
CCOc1ccccc1CC(=O)N(c1cccnc1)c1nc2c(s1)CCCC2 [Entry 24]	–	2.5	10.6	–
Cc1ccc(CC(=O)N(c2ccccc2)c2nc3c(s2)CCCC3)s1 [Entry 29]	7.8	0.03	0.11	–
CN(C(=O)Cc1sccc1F)c1nc2c(s1)CCCC2 [B]	–	–	–	Log titer reduction at 5 μM (Influenza virus A (H1N1)): 4.949 log; Log titer reduction at 5 μM (LCMV-ARM): 3.466 log; Log titer reduction at 5 μM (YFV 17D): 2.32 log; Log titer reduction at 5 μM (CHIKV S27): 4.024 log; Log titer reduction at 5 μM [1]: 4.768 log
Cc1ccc(C)c(CC(=O)N(C)c2nc3c(s2)CCCC3)c1 [Entry 13]	> 50	11.7	8.9	–
Cc1ccccc1CC(=O)N(C)c1nc2c(s1)CCCC2 [Entry 10]	> 50	1	3.6	–
O=C(Cc1ccccc1C(F)(F)F)N(c1ccccc1)c1nc2c(s1)CCCC2 [Entry 19]	> 50	1.2	1.2	–
CCOc1ccccc1NC(=O)N(c1ccccc1)c1nc2c(s1)CCCC2	–	–	–	CC50 (in vitro; CC50): > 50 µM; EC50 (VEEV (TC83 strain); [5]): 10 µM; EC50 (CHIKV (S27 strain); [6]): 12.2 µM
O=C(Cc1ccc(Br)s1)N(c1ccccc1)c1nc2c(s1)CCCC2 [Entry 27]	17.2	0.02	0.05	–
O=C(Cc1cccs1)N(c1ccccc1)c1nc2c(s1)CCCC2 [CB10002623]	–	–	–	GBP2 expression upregulation [2]: 3.5; IFI44 expression upregulation [2]: 2.83; IFIT1 expression upregulation [2]: 2.3; IRF9 expression upregulation [2]: 2.4; ISG20 expression upregulation [2]: 2.85; OASL expression fold increase [2]: 3.76 fold; expression of IFN-ε [2]: decreased in half; RIG-I expression fold increase ([2]; vs DMSO): 4.63 fold
COc1ccccc1CC(=O)N(c1ccccc1)c1nc2c(s1)CCCC2 [Entry 17]	> 50	0.7	0.5	–
Cc1cccc(CC(=O)N(C)c2nc3c(s2)CCCC3)c1 [Entry 11]	> 50	1.3	2.8	–
COCc1ccccc1CC(=O)N(C)c1nc2c(s1)CCCC2 [Entry 9]	> 50	9.1	9.3	–
Cc1csc(CC(=O)N(C)c2nc3c(s2)CCCC3)c1 [C]	–	–	–	Log titer reduction at 5 μM (Influenza virus A (H1N1)): 3.075 log; Log titer reduction at 5 μM (LCMV-ARM): 3.014 log; Log titer reduction at 5 μM (YFV 17D): 2.588 log; Log titer reduction at 5 μM (CHIKV S27): 3.62 log; Log titer reduction at 5 μM [1]: 3.741 log

Compound	CC50 (Vero 76 cells) [µM]	EC50 (VEEV (TC83 strain); [3]) [µM]	EC50 (CHIKV (S27 strain); [4]) [µM]	further results
CCOc1ccccc1C1CCN(c2nc3c(s2)CCCC3)C1=O (stereo not drawn)	–	–	–	CC50 (in vitro; CC50): > 50 µM; EC50 (VEEV (TC83 strain); [5]): 4.5 µM; EC50 (CHIKV (S27 strain); [6]): > 50 µM
CCOc1ccccc1CC(=O)N(c1nc2c(s1)CCCC2)C1CCOCC1 [Entry 15]	> 50	12.5	> 50	–
COc1ccccc1CC(=O)N(C)c1nc2c(s1)CCCC2 [D]	–	–	–	Log titer reduction at 5 μM (CHIKV S27): 2.182 log; Log titer reduction at 5 μM [1]: 2.716 log
CN(C(=O)Cc1ccc(C(F)(F)F)s1)c1nc2c(s1)CCCC2 [Entry 35]	> 50	> 50	> 50	–
Cc1ccc(CC(=O)N(C)c2nc3c(s2)CCCC3)cc1 [Entry 12]	> 50	0.9	4.1	–
O=C(Cc1cccs1)Nc1nc2c(s1)CCCC2 [Entry 1]	> 50	5.1	4.9	–
CCOc1ccccc1CC(=O)N(CCOC)c1nc2c(s1)CCCC2 [Entry 16]	> 50	10.9	10.9	–
CN(C(=O)Cc1sccc1F)c1nc2c(s1)CCCC2 [Entry 33]	–	–	–	CC50 (in vitro; VERO Cell Cytotoxicity Assay mean CC50): 41.4 µM; EC50 (VEEV (TC83 strain); Venezuelan equine encephalitis virus, read-out: VEEV (TC83 strain) CPE Assay Potency mean EC50): 0.4 µM; EC50 (CHIKV (S27 strain); Chikungunya virus, Tables 7-10, read-out: CHIKV (S27 strain) CPE Assay Potency mean EC50): 0.3 µM
CCOc1ccccc1CC(=O)N(c1ccc(OC)cc1)c1nc2c(s1)CCCC2 [Entry 22]	> 50	4.6	> 50	–
O=C(Cc1sccc1Br)N(c1ccccc1)c1nc2c(s1)CCCC2 [G]	–	–	–	Log titer reduction at 5 μM (CHIKV S27): 5.179 log; Log titer reduction at 5 μM [1]: 4.754 log
O=C(Cc1cccs1)Nc1nc2c(s1)CCCC2 [A]	–	–	–	Log titer reduction at 5 μM (Influenza virus A (H1N1)): 4.949 log; Log titer reduction at 5 μM (LCMV-ARM): 0.085 log; Log titer reduction at 5 μM (CHIKV S27): 0.61 log and 0.612 log; Log titer reduction at 5 μM [1]: 1.765 log
CCOc1ccccc1CC(=O)N(c1nc2c(s1)CCCC2)C(C)C [Entry 14]	> 50	15.9	> 50	–
CCOc1ccccc1CC(=O)N(C)c1nc2c(s1)CCCC2 [E]	–	–	–	Log titer reduction at 5 μM (CHIKV S27): 3.161 log; Log titer reduction at 5 μM [1]: 3.411 log
COc1csc(CC(=O)N(C)c2nc3c(s2)CCCC3)c1 [Entry 31]	36.1	0.05	0.14	–
CC[C@@]1([C@@H]2O[C@@H]([C@H]3O[C@@](O)(CO)[C@H](C)C[C@@H]3C)C[C@@H]2C)CC[C@H]([C@]2(C)CC[C@]3(C[C@H](O)[C@@H](C)[C@@H]([C@@H](C)[C@@H](OC)[C@H](C)C(=O)O)O3)O2)O1 [Monensin, monensin, reference compound]	–	–	–	EC50 (VEEV V3526-luc; N2a, read-out: EC50 V3526-luc): 0.25 µM; EC50 (VEEV V3526-luc; NIH3T3, read-out: EC50 V3526-luc): 0.02 µM; EC50 (VEEV V3526-luc; Vero 76, read-out: EC50 V3526-luc): 3.87 µM; EC50 (VEEV V3526-luc; read-out: EC50 V3526-luc): 0.02 µM; EC50 (VEEV V3526-luc; read-out: EC50 values range): 0.02 to 0.25 µM; EC50 (pVSV-luc; Vesicular stomatitis virus, N2a, read-out: EC50 pVSV-Gp): 0.22 µM; EC50 (pVSV-luc; Vesicular stomatitis virus, read-out: EC50 values range): 0.17 to 0.56 µM; EC50 (pVSV-luc; read-out: EC50 pVSV-Gp): 0.19 µM
CCOc1ccc(CC(=O)N(C)c2nc3c(s2)CCCC3)cc1 [Entry 8]	> 50	> 50	> 50	–
CN(C(=O)Cc1sccc1C(F)(F)F)c1nc2c(s1)CCCC2 [Entry 34]	6.4	–	> 50	–
O=C(Cc1sccc1Br)N(c1ccccc1)c1nc2c(s1)CCCC2 [Entry 28]	22.4	0.02	0.05	–
CN(C(=O)Cc1cc(F)cs1)c1nc2c(s1)CCCC2 [Entry 32]	22.5	5.1	10.2	–
